Experimental data published in patent publication US4076814A, “Preventive and curative compositions against mycoplasmosis” (Sankyo Company Limited, priority 1975, dated 1978).
Converted amounts (≈) assume the structure as drawn.

Columns and labels:
Assay type in all cases: cell-based
Mycoplasma gallisepticum = assay: Antimicrobial test, conventional agar plate dilution method, Mycoplasma gallisepticum; conditions: Mycoplasmoides gallisepticum, read-out: Minimum Inhibitory Concentration, Mycoplasma gallisepticum
Excerpt: (§1) ANTIMICROBIAL TEST AGAINST THREE STRAINS OF MYCOPLASMA
(§2) The test was effected by a conventional agar plate dilution method using the indicated strains of mycoplasma. The dithiocarbamic acid derivatives as shown below with Compound Nos. were employed in the test.

Mycoplasma hyorhinis = assay: Antimicrobial test, conventional agar plate dilution method, Mycoplasma hyorhinis; conditions: Mycoplasma, read-out: Minimum Inhibitory Concentration, Mycoplasma hyorhinis
Excerpt: as §1, §2

Mycoplasma pulmonis = assay: Antimicrobial test, conventional agar plate dilution method, Mycoplasma pulmonis; conditions: Mycoplasma, read-out: Minimum Inhibitory Concentration, Mycoplasma pulmonis
Excerpt: as §1, §2

SMILES	MIC (Mycoplasma gallisepticum)	MIC (Mycoplasma hyorhinis)	MIC (Mycoplasma pulmonis)
CN(C)C(=S)SCC1CCCC1=O (stereo not drawn) [Compound No. 1, 2-Oxocyclopentylmethyl dimethyldithiocarbamate]	0.05 µg/mL (≈ 0.23 µM)	0.05 µg/mL (≈ 0.23 µM)	0.05 µg/mL (≈ 0.23 µM)
CCN(CC)C(=S)SCC1CCCC1=O (stereo not drawn) [Compound No. 2, 2-Oxocyclopentylmethyl diethyldithiocarbamate]	0.1 µg/mL (≈ 0.407 µM)	0.1 µg/mL (≈ 0.407 µM)	0.1 µg/mL (≈ 0.407 µM)
O=C1CCCCC1CSC(=S)N1CCCCC1 (stereo not drawn) [Compound No. 9, 2-Oxocyclohexylmethyl 1-piperidinecarbodithioate]	0.2 µg/mL (≈ 0.737 µM)	0.2 µg/mL (≈ 0.737 µM)	0.39 µg/mL (≈ 1.44 µM)
CC(=O)CCSC(=S)N1CCN(C)CC1 [Compound No. 92, 2-Acetylethyl 4-methyl-1-piperazinecarbodithioate]	0.2 µg/mL (≈ 0.812 µM)	0.025 µg/mL (≈ 0.101 µM)	0.2 µg/mL (≈ 0.812 µM)
CCN(CC)C(=S)SCc1cc(C)c(O)cc1C(C)C [Compound No. 202, 4-Hydroxy-2-isopropyl-5-methylbenzyl diethyldithyldithiocarbamate]	0.1 µg/mL (≈ 0.321 µM)	0.1 µg/mL (≈ 0.321 µM)	0.1 µg/mL (≈ 0.321 µM)
O=C1CCCC1CSC(=S)N1CCOCC1 (stereo not drawn) [compound 3, 2-Oxocyclopentylmethyl 4-morpholinecarbodithioate]	0.2 µg/mL (≈ 0.771 µM)	0.2 µg/mL (≈ 0.771 µM)	0.1 µg/mL (≈ 0.386 µM)
CN(C)C(=S)SCC1CCCCC1=O (stereo not drawn) [compound 5, 2-Oxocyclohexylmethyl dimethyldithiocarbamate]	0.05 µg/mL (≈ 0.216 µM)	0.05 µg/mL (≈ 0.216 µM)	0.1 µg/mL (≈ 0.432 µM)
CCN(CC)C(=S)SCC1CCCCC1=O (stereo not drawn) [compound 6, 2-Oxocyclohexylmethyl diethyldithiocarbamate]	0.1 µg/mL (≈ 0.385 µM)	0.05 µg/mL (≈ 0.193 µM)	0.1 µg/mL (≈ 0.385 µM)
CCCCN(C)C(=S)SCC1CCCCC1=O (stereo not drawn) [compound 7, 2-Oxocyclohexylmethyl n-butylmethyldithiocarbamate]	0.2 µg/mL (≈ 0.731 µM)	0.2 µg/mL (≈ 0.731 µM)	0.2 µg/mL (≈ 0.731 µM)
O=C(CCSC(=S)N1CCOCC1)c1ccccc1[N+](=O)[O-] [compound 61, 2-(o-Nitrobenzoyl)ethyl 4-morpholinecarbodithioate]	0.1 µg/mL (≈ 0.294 µM)	1.56 µg/mL (≈ 4.58 µM)	0.39 µg/mL (≈ 1.15 µM)
CC(=O)CCSC(=S)N(C)C1CCCCC1 [compound 81, 2-Acetylethyl cyclohexylmethyldithiocarbamate]	0.2 µg/mL (≈ 0.771 µM)	0.2 µg/mL (≈ 0.771 µM)	0.2 µg/mL (≈ 0.771 µM)
CC(=O)CCSC(=S)N1CCCCCC1 [compound 89, 2-Acetylethyl 1-hexamethyleneiminecarbodithioate]	0.2 µg/mL (≈ 0.815 µM)	0.1 µg/mL (≈ 0.407 µM)	0.1 µg/mL (≈ 0.407 µM)
CC(=O)CCSC(=S)N1CCOCC1 [compound 91, 2-Acetylethyl 4-morpholinecarbodithioate]	0.2 µg/mL (≈ 0.857 µM)	0.025 µg/mL (≈ 0.107 µM)	0.2 µg/mL (≈ 0.857 µM)
CC(=O)CCSC(=S)N1CCN(C)CC1.Cl [compound 93, 2-Acetylethyl 4-methyl-1-piperazinecarbodithioate hydrochloride]	0.1 µg/mL	0.05 µg/mL	0.1 µg/mL
CCC(=O)CCSC(=S)N1CCOCC1 [compound 101, 2-Propionylethyl 4-morphonlinecarbodithioate]	0.1 µg/mL (≈ 0.404 µM)	0.1 µg/mL (≈ 0.404 µM)	0.1 µg/mL (≈ 0.404 µM)
CCN(CC)C(=S)SCC(C)C(C)=O (stereo not drawn) [compound 148, 2-Acetylpropyl diethyldithiocarbamate]	0.05 µg/mL (≈ 0.214 µM)	0.05 µg/mL (≈ 0.214 µM)	0.05 µg/mL (≈ 0.214 µM)
CC(=O)C(C)CSC(=S)N1CCCCC1 (stereo not drawn) [compound 149, 2-Acetylpropyl 1-piperidinecarbodithioate]	0.2 µg/mL (≈ 0.815 µM)	0.05 µg/mL (≈ 0.204 µM)	0.2 µg/mL (≈ 0.815 µM)
CCCCCCCCCCC(CSC(=S)N(C)C)C(C)=O (stereo not drawn) [compound 152, 2-Acetyldodecyl dimethyldithiocarbamate]	0.1 µg/mL (≈ 0.302 µM)	0.39 µg/mL (≈ 1.18 µM)	0.1 µg/mL (≈ 0.302 µM)
Cc1cc(CSC(=S)N2CCCC2)cc(C)c1O [compound 187, 4-Hydroxy-3,5-dimethylbenzyl 1-pyrrolidinecarbodithioate]	0.78 µg/mL (≈ 2.77 µM)	0.78 µg/mL (≈ 2.77 µM)	0.78 µg/mL (≈ 2.77 µM)
Cc1cc(CSC(=S)N2CCCC2C(=O)OCc2ccccc2)cc(C)c1O (stereo not drawn) [compound 191, 4-Hydroxy-3,5-dimethylbenzyl 2-benzyloxycarbonyl-1-pyrrolidinecarbodithioate]	1.56 µg/mL (≈ 3.75 µM)	3.13 µg/mL (≈ 7.53 µM)	1.56 µg/mL (≈ 3.75 µM)
Cc1cc(CSC(=S)N2CCCCC2)cc(C)c1O [compound 192, 4-Hydroxy-3,5-dimethylbenzyl 1-piperidinecarbodithioate]	0.39 µg/mL (≈ 1.32 µM)	0.1 µg/mL (≈ 0.338 µM)	0.39 µg/mL (≈ 1.32 µM)

Second part, the compound after the results:

MIC (Mycoplasma gallisepticum)	MIC (Mycoplasma hyorhinis)	MIC (Mycoplasma pulmonis)	SMILES
0.05 µg/mL (≈ 0.243 µM)	0.05 µg/mL (≈ 0.243 µM)	0.05 µg/mL (≈ 0.243 µM)	CC(=O)C(C)CSC(=S)N(C)C (stereo not drawn) [Compound No. 147, 2-Acetylpropyl dimethyldithiocarbamate]
0.05 µg/mL (≈ 0.197 µM)	0.05 µg/mL (≈ 0.197 µM)	0.025 µg/mL (≈ 0.0987 µM)	CN(C)C(=S)SCCC(=O)c1ccccc1 [compound 23, 2-Benzoylethyl dimethyldithiocarbamate]
0.2 µg/mL (≈ 0.682 µM)	0.2 µg/mL (≈ 0.682 µM)	0.2 µg/mL (≈ 0.682 µM)	O=C(CCSC(=S)N1CCCCC1)c1ccccc1 [compound 30, 2-Benzoylethyl 1-piperidinecarbodithioate]
0.2 µg/mL (≈ 0.65 µM)	0.2 µg/mL (≈ 0.65 µM)	0.2 µg/mL (≈ 0.65 µM)	O=C(CCSC(=S)N1CCCCCC1)c1ccccc1 [compound 31, 2-Benzoylethyl 1-hexamethyleneiminecarbodithioate]
0.05 µg/mL	0.05 µg/mL	0.05 µg/mL	CN1CCN(C(=S)SCCC(=O)c2ccccc2)CC1.Cl [compound 34, 2-Benzoylethyl 4-methyl-1-piperazinecarbodithioate hydrochloride]
0.2 µg/mL (≈ 0.642 µM)	0.39 µg/mL (≈ 1.25 µM)	0.2 µg/mL (≈ 0.642 µM)	O=C(CCSC(=S)N1CCOCC1)c1ccccc1O [compound 42, 2-(o-Hydroxybenzoyl)ethyl 4-morpholinecarbodithioate]
0.2 µg/mL (≈ 0.748 µM)	0.2 µg/mL (≈ 0.748 µM)	0.39 µg/mL (≈ 1.46 µM)	Cc1ccc(C(=O)CCSC(=S)N(C)C)cc1 [compound 55, 2-(p-Toluoyl)ethyl dimethyldithiocarbamate]
0.1 µg/mL (≈ 0.374 µM)	0.05 µg/mL (≈ 0.187 µM)	0.1 µg/mL (≈ 0.374 µM)	Cc1cccc(C(=O)CCSC(=S)N(C)C)c1 [compound 56, 2-(m-Toluoyl)ethyl dimethyldithiocarbamate]
0.1 µg/mL (≈ 0.374 µM)	0.1 µg/mL (≈ 0.374 µM)	0.2 µg/mL (≈ 0.748 µM)	Cc1ccccc1C(=O)CCSC(=S)N(C)C [compound 57, 2-(o-Toluoyl)ethyl dimethyldithiocarbamate]
0.1 µg/mL (≈ 0.393 µM)	0.1 µg/mL (≈ 0.393 µM)	0.1 µg/mL (≈ 0.393 µM)	CN(C)C(=S)SCCC(=O)c1cccnc1 [compound 69]
0.05 µg/mL (≈ 0.261 µM)	0.025 µg/mL (≈ 0.131 µM)	0.05 µg/mL (≈ 0.261 µM)	CC(=O)CCSC(=S)N(C)C [compound 78, 2-Acetylethyl dimethyldithiocarbamate]
0.1 µg/mL (≈ 0.428 µM)	0.1 µg/mL (≈ 0.428 µM)	0.1 µg/mL (≈ 0.428 µM)	CCCCN(C)C(=S)SCCC(C)=O [compound 80, 2-Acethylethyl butylmethyldithiocarbamate]
0.2 µg/mL (≈ 0.748 µM)	0.2 µg/mL (≈ 0.748 µM)	0.2 µg/mL (≈ 0.748 µM)	CC(=O)CCSC(=S)N(C)Cc1ccccc1 [compound 82, 2-Acetylethyl benzylmethyldithiocarbamate]
0.05 µg/mL (≈ 0.214 µM)	0.05 µg/mL (≈ 0.214 µM)	0.05 µg/mL (≈ 0.214 µM)	CCC(=O)CCSC(=S)N(CC)CC [compound 99, 2-Propionylethyl diethyldithiocarbamate]
0.2 µg/mL (≈ 0.912 µM)	0.2 µg/mL (≈ 0.912 µM)	0.2 µg/mL (≈ 0.912 µM)	CC(C)C(=O)CCSC(=S)N(C)C [compound 104, 2-Isobutyrylethyl dimethyldithiocarbamate]
0.2 µg/mL (≈ 0.857 µM)	0.2 µg/mL (≈ 0.857 µM)	0.2 µg/mL (≈ 0.857 µM)	CN(C)C(=S)SCCC(=O)C(C)(C)C [compound 108, 2-Pivaroylethyl dimethyldithiocarbamate]
0.2 µg/mL (≈ 0.711 µM)	0.2 µg/mL (≈ 0.711 µM)	0.2 µg/mL (≈ 0.711 µM)	CN(C)C(=S)SCCC(=O)CCc1ccccc1 [compound 123, 2-Hydrocinnamoylethyl dimethyldithiocarbamate]
0.2 µg/mL (≈ 0.614 µM)	0.2 µg/mL (≈ 0.614 µM)	0.2 µg/mL (≈ 0.614 µM)	CCN(CC)C(=S)SCCC(=O)CCc1ccccc1O [compound 125, 2-(o-Hydroxyhydrocinnamoyl)ethyl diethyldithiocarbamate]
0.2 µg/mL (≈ 0.589 µM)	0.2 µg/mL (≈ 0.589 µM)	0.2 µg/mL (≈ 0.589 µM)	CCN(CC)C(=S)SCCC(=O)CCc1ccc(OC)cc1 [compound 129, 2-(p-Methoxyhydrocinnamoyl)ethyl diethyldithiocarbamate]
0.2 µg/mL (≈ 0.716 µM)	0.2 µg/mL (≈ 0.716 µM)	0.2 µg/mL (≈ 0.716 µM)	CN(C)C(=S)SCCC(=O)C=Cc1ccccc1 [compound 134, 2-Cinnamoylethyl dimethyldithiocarbamate]
0.2 µg/mL (≈ 0.65 µM)	0.2 µg/mL (≈ 0.65 µM)	0.2 µg/mL (≈ 0.65 µM)	CCN(CC)C(=S)SCCC(=O)C=Cc1ccccc1 [compound 135, 2-Cinnamoylethyl diethyldithiocarbamate]
0.2 µg/mL (≈ 0.622 µM)	0.2 µg/mL (≈ 0.622 µM)	0.2 µg/mL (≈ 0.622 µM)	CCN(CC)C(=S)SCCC(=O)C=Cc1ccc(C)cc1 [compound 142, 2-(p-Methylcinnamoyl)ethyl diethyldithiocarbamate]
0.39 µg/mL (≈ 1.2 µM)	0.39 µg/mL (≈ 1.2 µM)	0.39 µg/mL (≈ 1.2 µM)	CC1=C(C=CC(=O)CCSC(=S)N(C)C)C(C)(C)CCC1 [compound 146, 2-[β-(2,6,6-Trimethylcyclohexene-1-yl)acryloyl]-ethyl dimethyldithiocarbamate]
0.2 µg/mL (≈ 0.711 µM)	0.2 µg/mL (≈ 0.711 µM)	0.2 µg/mL (≈ 0.711 µM)	CC(=O)C(CSC(=S)N(C)C)Cc1ccccc1 (stereo not drawn) [compound 156, 2-Acetyl-2-benzylethyl dimethyldithiocarbamate]
0.1 µg/mL (≈ 0.374 µM)	0.1 µg/mL (≈ 0.374 µM)	0.1 µg/mL (≈ 0.374 µM)	CC(=O)C(CSC(=S)N(C)C)c1ccccc1 (stereo not drawn) [compound 164, 2-Acetyl-2-phenylethyl dimethyldithiocarbamate]
0.2 µg/mL (≈ 0.783 µM)	0.2 µg/mL (≈ 0.783 µM)	0.2 µg/mL (≈ 0.783 µM)	Cc1cc(CSC(=S)N(C)C)cc(C)c1O [compound 183, 4-Hydroxy-3,5-dimethylbenzyl dimethyldithiocarbamate]
